Experiment [1] deals with Chromo bacterium violaceum. The experiment is described as follows: Agar disc diffusion antibacterial test. The note with it: for Inhibition %: C, (-) Chromo bacterium violaceum, (T–C)/T × 100; for zone of inhibition at 100 µM: read-out: diameter of clear zone inhibition. Background: A growth-free zone around the sample is the usual read-out of agar diffusion tests.
For the next experiment, the system named is Staphylococcus Aureus. The experiment is described as follows: Agar disc diffusion antibacterial test. The note with it: for Inhibition %: F, (+) Staphylococcus Aureus, (T–C)/T × 100; for zone of inhibition at 100 µM: Staphylococcus aureus, read-out: diameter of clear zone inhibition.
Experiment [2] relates to Salmonella enteric serovar typhi. Nature of the experiment: Agar disc diffusion antibacterial test. Conditions: B; for zone of inhibition at 100 µM: 20 µL of 100 µM on 6 mm disc, Control (DMSO) = 6 mm, read-out: diameter of clear zone inhibition; for Inhibition %: (T–C)/T × 100. The format is cell-based.
Another experiment deals with Shigella flexneri. Nature of the experiment: Agar disc diffusion antibacterial test. Conditions: for Inhibition %: E, (-) Shigella flexneri, (T–C)/T × 100; for zone of inhibition at 100 µM: Shigella flexneri, read-out: diameter of clear zone inhibition.
The test system of the next experiment is Pseudomonas aeruginosa. The experiment is described as follows: Agar disc diffusion antibacterial test. The note with it: for Inhibition %: D, (-) Pseudomonas aeruginosa, (T–C)/T × 100; for zone of inhibition at 100 µM: Pseudomonas aeruginosa, read-out: diameter of clear zone inhibition.
Another experiment relates to Bacillus cereus. The experiment is described as follows: Agar disc diffusion antibacterial test. The note with it: for zone of inhibition at 100 µM: Bacillus cereus, read-out: diameter of clear zone inhibition; for Inhibition %: G, (+) Bacillus cereus, (T–C)/T × 100.
A further experiment concerns Escherichia coli. Nature of the experiment: Agar disc diffusion antibacterial test. Conditions: for Inhibition %: A, (-) Escherichia coli, (T–C)/T × 100; for zone of inhibition at 100 µM: Escherichia coli, read-out: diameter of clear zone inhibition.
Another experiment deals with Candida albicans. Nature of the experiment: Agar disc diffusion antifungal test. The note with it: for Inhibition %: I, (T–C)/T × 100; for zone of inhibition at 100 µM: read-out: diameter of clear zone inhibition.
In the next experiment the test system is Mucor indicus. Nature of the experiment: Agar disc diffusion antifungal test. Conditions: for Inhibition %: J, (T–C)/T × 100; for zone of inhibition at 100 µM: read-out: diameter of clear zone inhibition.
The subject of a further experiment is Aspergillus niger. The experiment is described as follows: Agar disc diffusion antifungal test. The note with it: for Inhibition %: H, (T–C)/T × 100; for zone of inhibition at 100 µM: read-out: diameter of clear zone inhibition.
Experiment [3] in a line: Hydroxyl radical scavenging assay. Type of experiment: biochemical. Conditions: 230 nm.
Experiment [4] in a line: Superoxide scavenging assay. Type of experiment: biochemical. Conditions: 590 nm.
Experiment [5] is described as follows: Nitric oxide scavenging assay. Type of experiment: biochemical. Conditions: 546 nm.
Experiment [6] can be described thus: DPPH radical scavenging assay. The format is biochemical. The note with it: 517 nm. Background: Loss of DPPH colour is used to gauge radical scavenging.
For experiment [7], the system named is A549 Human lung cancer cell line. The experiment is described as follows: MTT cell viability assay. Type of experiment: cell-based. The note with it: 72 h exposure, at least three independent experiments. In general terms: Tetrazolium dyes change colour on reduction, which living cells bring about.
The test system of experiment [8] is NHDF Normal human dermal fibroblasts cell line. The experiment is described as follows: MTT cell viability assay. The format is cell-based. The note with it: 72 h exposure.
Experiment [9] has as its system MCF-7 Breast cancer cell line. The experiment is described as follows: MTT cell viability assay. Type of experiment: cell-based. The note with it: 72 h exposure, at least three independent experiments.
For experiment [10], the system named is HepG2 Liver cancer cell line. The experiment is described as follows: MTT cell viability assay. The format is cell-based. Conditions: 72 h exposure, at least three independent experiments.
Another experiment has as its system CT-DNA. The experiment is described as follows: DNA binding affinity by viscometric (hydrodynamic) titration. The arrangement: species or system calf. Conditions: for Relative Specific Viscosity (η/η0)^1/3: DNA 100 µM; for Slope of (η/η0)^1/3 vs [Compound]/[DNA]: linear plot, R 0.2–1.0. The protocol:
The hydrodynamic titrations were carried out for all substances along with ethidium bromide (control) at 20, 40, 60, 80, 100 µM concentrations. In the Ostwald viscometer, these substances were also separately treated with the deoxyribonucleic acid solution (100 µM).
2.2.4. Viscometry-based titration for investigation of DNA binding
The Viscometry-based titration measurements were further supportive and delivered data about the binding modes between test compound and DNA base pairs. Nevertheless, it does not deliver definite confirmation for the exact mode of interactions. The experiment performed for all test compounds and ethidium bromide (control) at various concentrations 20, 40, 60, 80, 100 µM and each compound mixed with the CT-DNA solution (100 µM) in the Ostwald viscometer. With an accuracy of 0.01 seconds, a digital stopwatch was used to measure the average flow time. Due to the enhancement of the DNA's overall contour length during the separation of base pairs at intercalation sites, the classical intercalative mode […]
Generally, the compounds may result in less positive/negative or no viscosity change if they bind with DNA base pairs via […]
major or minor grooves [ 26]. […]
compounds via intercalation.

The values that follow come from article PMC9775322, “An Integrated Analysis of Mechanistic Insights into Biomolecular Interactions and Molecular Dynamics of Bio-Inspired Cu(II) and Zn(II) Complexes towards DNA/BSA/SARS-CoV-2 3CL^pro by Molecular Docking-Based Virtual Screening and FRET Detection” (Biomolecules, 2022).

On to `NCC[C@H](O)C(=O)N[C@@H]1C[C@H](N)[C@@H](O[C@H]2O[C@H](CN)[C@@H](O)[C@H](O)[C@H]2O)[C@H](O)[C@H]1O[C@H]1O[C@H](CO)[C@@H](O)[C@H](N)[C@H]1O` [Amikacin, reference compound], for which the Inhibition % in experiment [1] is reported as 75%; in the experiment with Staphylococcus Aureus, 70%; in experiment [2], 73%; in the experiment with Shigella flexneri, 70%; in the experiment with Pseudomonas aeruginosa, 70%; in the experiment on Bacillus cereus, 70%. This compound also gave an Inhibition % with Escherichia coli of 73%. For the same compound, the zone of inhibition (usually the size of the clear area around the sample on an inoculated plate) at 100 µM came out at 24 mm in [1]; 20 mm in the experiment with Staphylococcus Aureus; 22 mm in experiment [2]; 20 mm in the experiment on Shigella flexneri; 20 mm in the experiment on Pseudomonas aeruginosa; 20 mm in the experiment with Bacillus cereus. Besides, the zone of inhibition at 100 µM with Escherichia coli was 22 mm.

For `C[C@@H]1[C@H](O)[C@@H](C)/C=C/C=C/C=C/C=C/C=C/C=C/C=C/[C@H](O[C@@H]2O[C@H](C)[C@@H](O)[C@H](N)[C@@H]2O)C[C@@H]2O[C@](O)(C[C@@H](O)C[C@@H](O)[C@H](O)CC[C@@H](O)C[C@@H](O)CC(=O)O[C@H]1C)C[C@H](O)[C@H]2C(=O)O` [Amphotericin B, reference compound], the Inhibition % in the experiment on Candida albicans was found to be 65%; with Mucor indicus it was 65%; with Aspergillus niger it was 60%. Besides, the zone of inhibition at 100 µM is 17 mm in the experiment with Candida albicans, 17 mm in the experiment on Mucor indicus and 15 mm in the experiment on Aspergillus niger.

In the case of `O=C1O[C@H]([C@@H](O)CO)C(O)=C1O` [Ascorbic acid, ascorbic acid, reference compound], the “% Inhibition, hydroxyl radical” value in experiment [3] (40 µM) is listed as 20.73%; in [3] (80 µM), 36.46%; in [3] (120 µM) it was 47.87%; in experiment [3] (160 µM), 59.65%; in [3] (200 µM), 65.64%; in experiment [3] (240 µM) it was 78.83%. The IC50 (in general, the concentration needed to halve the response being measured) was found to be 160 µM in experiment [3] (read-out: IC50, hydroxyl radical inhibition); 120 µM in experiment [4]; 80 µM in experiment [6]. In addition, the “% Inhibition, superoxide” value in [4] (40 µM) is on record as 29.64%; in experiment [4] (80 µM) it was 41.72%; in experiment [4] (120 µM), 55.63%; in experiment [4] (160 µM), 66.75%; in experiment [4] (200 µM), 72.55%; in experiment [4] (240 µM), 84.85%. Also, the “% Inhibition, nitric oxide” value amounted to 28.55% in experiment [5] (40 µM); 35.75% in experiment [5] (80 µM); 43.65% in experiment [5] (120 µM); 52.68% in experiment [5] (160 µM); 63.72% in [5] (200 µM); 72.73% in experiment [5] (240 µM). Further, the “% Inhibition, DPPH” value is on record as 41.63% in experiment [6] (40 µM); 53.74% in [6] (80 µM); 58.95% in experiment [6] (120 µM); 70.86% in experiment [6] (160 µM); 82.75% in [6] (200 µM); 85.65% in experiment [6] (240 µM).

Consider `N.N.[Cl][Pt][Cl]` [Cisplatin, cisplatin, reference compound], for which the IC50 is 31.9 ± 1.6 µM in [7], 26.9 ± 1.3 µM in experiment [8], 20.2 ± 1 µM in experiment [9] and 22.9 ± 1.1 µM in experiment [10].

Take `CC[n+]1c(-c2ccccc2)c2cc(N)ccc2c2ccc(N)cc21` [EB, ethidium bromide, reference compound]: the “Relative Specific Viscosity (η/η0)^1/3” value in the experiment on CT-DNA (R = [Complex]/[DNA] = 0.2) was 1.01; in the experiment with CT-DNA (R = [Complex]/[DNA] = 0.4), 1.35; with CT-DNA (R = [Complex]/[DNA] = 0.6) it was 1.63; in the experiment with CT-DNA (R = [Complex]/[DNA] = 0.8), 1.82; in the experiment with CT-DNA (R = [Complex]/[DNA] = 1.0), 1.99. In addition, the “Slope of (η/η0)^1/3 vs [Compound]/[DNA]” value stood at 1.2859 with CT-DNA and 1.286 in the experiment on CT-DNA (listed as (EB)).

Consider `CC(=O)N1CCN(c2ccc(OCC3COC(Cn4ccnc4)(c4ccc(Cl)cc4Cl)O3)cc2)CC1` (stereo not drawn) [Ketoconazole, reference compound], for which the Inhibition % is reported as 67% in the experiment on Candida albicans, 67% in the experiment with Mucor indicus and 63% in the experiment with Aspergillus niger. For the same compound, the zone of inhibition at 100 µM with Candida albicans was found to be 18 mm; with Mucor indicus, 18 mm; in the experiment on Aspergillus niger, 16 mm.

As to `[H]/N=C(/N)N[C@H]1[C@H](O)[C@@H](O)[C@H](O[C@@H]2O[C@@H](C)[C@](O)(C=O)[C@H]2O[C@@H]2O[C@@H](CO)[C@H](O)[C@@H](O)[C@@H]2NC)[C@@H](N/C(N)=N\[H])[C@@H]1O` [Streptomycin, reference compound], the Inhibition % in experiment [1] is reported as 75%; with Staphylococcus Aureus it was 71%; in experiment [2], 77%; with Shigella flexneri, 76%; with Pseudomonas aeruginosa it was 71%; in the experiment with Bacillus cereus, 71%. The same compound yielded an Inhibition % in the experiment with Escherichia coli of 75%. The zone of inhibition at 100 µM in experiment [1] was 24 mm; with Staphylococcus Aureus, 21 mm; in experiment [2], 26 mm; with Shigella flexneri it was 25 mm; with Pseudomonas aeruginosa, 21 mm; in the experiment with Bacillus cereus, 21 mm. Also, the zone of inhibition at 100 µM in the experiment with Escherichia coli was 24 mm.
